# Experimental data from paper PMC7265341, “Quantifying CDK inhibitor selectivity in live cells” (Nature Communications, 2020).
# Like-named read-outs stand apart in the source and are kept apart here.
# What was measured:
# CDK13/Cyclin K = CDK13/Cyclin K (Homo sapiens, UniProt Q14004); assay: NanoBRET live-cell target engagement, CDK13-NanoLuc/Cyclin K in HEK-293; type: binding; conditions: CDK13/K, 10µM
# CDK18/Cyclin Y = CDK18/Cyclin Y (Homo sapiens, UniProt Q07002); assay: NanoBRET live-cell target engagement, CDK18-NanoLuc/Cyclin Y in HEK-293; type: binding
# CDK17/Cyclin Y = CDK17/Cyclin Y (Homo sapiens, UniProt Q00537); assay: NanoBRET live-cell target engagement, CDK17-NanoLuc/Cyclin Y in HEK-293; type: binding; conditions: CDK17/Y, 10µM
# CDK10/Cyclin L2 = CDK10/Cyclin L2 (Homo sapiens, UniProt Q15131); assay: NanoBRET live-cell target engagement, CDK10-NanoLuc/Cyclin L2 in HEK-293; conditions: 10µM
# CDK15/Cyclin Y = CDK15/Cyclin Y (Homo sapiens, UniProt Q96Q40); assay: NanoBRET live-cell target engagement, NanoLuc-CDK15/Cyclin Y in HEK-293; type: binding; conditions: CDK15/Y, 10µM
# CDK5/CDK5R1 = CDK5/CDK5R1 (Homo sapiens, UniProt Q00535); assay: NanoBRET live-cell target engagement, CDK5-NanoLuc/CDK5R1 in HEK-293; type: binding; conditions: CDK5/CDK5R1, 10µM
# CDK7 = CDK7 (Homo sapiens, UniProt P50613); assay: NanoBRET live-cell target engagement, NanoLuc-CDK7 in HEK-293; type: binding; conditions: CDK7, 10µM
# CDK8/Cyclin C = CDK8/Cyclin C (Homo sapiens, UniProt P49336); assay: NanoBRET live-cell target engagement, NanoLuc-CDK8/Cyclin C in HEK-293; type: binding; conditions: CDK8/C, 10µM
# CDK11B/Cyclin L2 = CDK11B/Cyclin L2 (Homo sapiens, UniProt P21127); assay: NanoBRET live-cell target engagement, CDK11B-NanoLuc/Cyclin L2 in HEK-293; type: binding; conditions: CDK11b/L2, 10µM
# CDK3/Cyclin E1 = CDK3/Cyclin E1 (Homo sapiens, UniProt Q00526); assay: NanoBRET live-cell target engagement, CDK3-NanoLuc/Cyclin E1 in HEK-293; type: binding; conditions: CDK3/E1, 10µM
# CDK16/Cyclin Y = CDK16/Cyclin Y (Homo sapiens, UniProt Q00536); assay: NanoBRET live-cell target engagement, CDK16-NanoLuc/Cyclin Y in HEK-293; type: binding; conditions: CDK16/Y, 10µM
# CDK20/Cyclin H = CDK20/Cyclin H (Homo sapiens, UniProt Q8IZL9); assay: NanoBRET live-cell target engagement, NanoLuc-CDK20/Cyclin H in HEK-293; type: binding; conditions: CDK20/H, 10µM
# CDK6/Cyclin D1 = CDK6/Cyclin D1 (Homo sapiens, UniProt Q00534); assay: NanoBRET live-cell target engagement, NanoLuc-CDK6/Cyclin D1 in HEK-293; type: binding; conditions: CDK6/D1, 10µM
# CDK19/Cyclin C = CDK19/Cyclin C (Homo sapiens, UniProt Q9BWU1); assay: NanoBRET live-cell target engagement, NanoLuc-CDK19/Cyclin C in HEK-293; conditions: 10µM
# CDK9/Cyclin K = CDK9/Cyclin K (Homo sapiens, UniProt P50750); assay: NanoBRET live-cell target engagement, NanoLuc-CDK9/Cyclin K in HEK-293; type: binding; conditions: CDK9/K, 10µM
# CDK4/Cyclin D1 = CDK4/Cyclin D1 (Homo sapiens, UniProt P11802); assay: NanoBRET live-cell target engagement, NanoLuc-CDK4/Cyclin D1 in HEK-293; type: binding; conditions: CDK4/D1, 10µM
# CDK12/Cyclin K = CDK12/Cyclin K (Homo sapiens, UniProt Q9NYV4); assay: NanoBRET live-cell target engagement, CDK12-NanoLuc/Cyclin K in HEK-293; type: binding; conditions: CDK12/K, 10µM
# [1] = average of replicates, read-out: Inhibition at 10µM (%) Average
# [2] = read-out: Inhibition at 10µM (%) Replicate 1
# [3] = read-out: Inhibition at 10µM (%) Replicate 2
# Sequence of CDK11B/Cyclin L2 (P21127 1-782 isoform P21127-2): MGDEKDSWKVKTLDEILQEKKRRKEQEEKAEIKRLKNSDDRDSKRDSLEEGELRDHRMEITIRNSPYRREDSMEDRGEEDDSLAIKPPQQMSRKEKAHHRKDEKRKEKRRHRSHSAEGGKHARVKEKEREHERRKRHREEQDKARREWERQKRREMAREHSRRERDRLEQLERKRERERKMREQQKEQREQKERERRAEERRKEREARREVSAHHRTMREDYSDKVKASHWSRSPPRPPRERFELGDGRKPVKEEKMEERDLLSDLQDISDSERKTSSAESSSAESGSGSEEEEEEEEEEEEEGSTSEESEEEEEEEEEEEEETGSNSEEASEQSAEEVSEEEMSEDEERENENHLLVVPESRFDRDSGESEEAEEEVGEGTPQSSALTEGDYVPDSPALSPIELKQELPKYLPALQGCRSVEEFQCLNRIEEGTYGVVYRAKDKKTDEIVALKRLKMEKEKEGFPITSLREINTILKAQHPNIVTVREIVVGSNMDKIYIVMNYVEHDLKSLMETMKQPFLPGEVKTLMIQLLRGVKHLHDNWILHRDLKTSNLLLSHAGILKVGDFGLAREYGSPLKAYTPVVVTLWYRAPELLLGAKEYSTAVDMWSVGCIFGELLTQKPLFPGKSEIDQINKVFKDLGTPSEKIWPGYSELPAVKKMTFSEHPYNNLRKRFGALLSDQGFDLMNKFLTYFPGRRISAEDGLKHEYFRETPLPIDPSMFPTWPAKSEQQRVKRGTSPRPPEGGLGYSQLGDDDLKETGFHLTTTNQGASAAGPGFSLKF
# Sequence of CDK3/Cyclin E1 (Q00526 whole entry): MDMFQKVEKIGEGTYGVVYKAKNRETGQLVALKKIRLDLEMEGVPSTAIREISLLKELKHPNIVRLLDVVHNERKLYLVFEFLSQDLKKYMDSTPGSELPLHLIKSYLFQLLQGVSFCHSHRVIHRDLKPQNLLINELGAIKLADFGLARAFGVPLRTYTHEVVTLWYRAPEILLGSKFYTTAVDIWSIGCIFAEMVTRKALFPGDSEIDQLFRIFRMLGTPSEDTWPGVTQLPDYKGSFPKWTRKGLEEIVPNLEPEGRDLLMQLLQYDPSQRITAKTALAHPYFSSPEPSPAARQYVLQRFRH
# Sequence of CDK3/Cyclin E1 (P24864 whole entry partner): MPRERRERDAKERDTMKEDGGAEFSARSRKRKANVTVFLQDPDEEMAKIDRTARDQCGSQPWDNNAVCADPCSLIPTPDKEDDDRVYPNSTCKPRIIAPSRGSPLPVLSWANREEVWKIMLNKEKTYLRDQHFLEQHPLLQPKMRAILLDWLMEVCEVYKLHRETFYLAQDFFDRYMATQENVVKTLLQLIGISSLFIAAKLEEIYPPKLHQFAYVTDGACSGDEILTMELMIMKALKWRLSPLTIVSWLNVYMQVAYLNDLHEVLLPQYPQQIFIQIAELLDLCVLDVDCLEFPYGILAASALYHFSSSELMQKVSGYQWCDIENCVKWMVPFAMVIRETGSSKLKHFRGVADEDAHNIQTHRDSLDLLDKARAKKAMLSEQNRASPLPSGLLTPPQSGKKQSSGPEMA
# Sequence of CDK17/Cyclin Y (Q00537 whole entry): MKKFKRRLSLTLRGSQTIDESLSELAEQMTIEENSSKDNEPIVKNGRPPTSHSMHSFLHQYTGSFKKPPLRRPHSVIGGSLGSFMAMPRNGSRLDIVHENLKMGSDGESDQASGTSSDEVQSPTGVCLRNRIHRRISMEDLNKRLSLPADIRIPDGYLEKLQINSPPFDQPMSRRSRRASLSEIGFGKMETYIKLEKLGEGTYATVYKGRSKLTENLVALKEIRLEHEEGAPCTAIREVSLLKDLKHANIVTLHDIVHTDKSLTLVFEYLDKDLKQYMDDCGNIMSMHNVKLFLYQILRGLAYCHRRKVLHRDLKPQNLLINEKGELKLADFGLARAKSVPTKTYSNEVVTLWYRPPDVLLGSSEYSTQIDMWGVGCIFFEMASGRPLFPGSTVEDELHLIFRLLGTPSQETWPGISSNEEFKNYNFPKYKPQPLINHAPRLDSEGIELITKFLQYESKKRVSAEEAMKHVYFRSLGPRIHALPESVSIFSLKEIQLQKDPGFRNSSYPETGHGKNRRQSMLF
# Sequence of CDK17/Cyclin Y (Q8ND76 whole entry partner): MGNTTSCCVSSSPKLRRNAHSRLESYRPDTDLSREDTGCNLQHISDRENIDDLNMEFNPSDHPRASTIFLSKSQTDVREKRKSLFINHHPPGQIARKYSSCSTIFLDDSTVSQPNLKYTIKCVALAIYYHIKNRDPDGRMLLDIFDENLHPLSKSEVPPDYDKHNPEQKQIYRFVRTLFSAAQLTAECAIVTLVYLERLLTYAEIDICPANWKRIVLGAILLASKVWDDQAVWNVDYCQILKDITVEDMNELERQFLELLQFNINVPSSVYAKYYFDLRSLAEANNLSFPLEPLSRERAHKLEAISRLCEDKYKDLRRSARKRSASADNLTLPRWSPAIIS
# Sequence of CDK18/Cyclin Y (Q07002 whole entry): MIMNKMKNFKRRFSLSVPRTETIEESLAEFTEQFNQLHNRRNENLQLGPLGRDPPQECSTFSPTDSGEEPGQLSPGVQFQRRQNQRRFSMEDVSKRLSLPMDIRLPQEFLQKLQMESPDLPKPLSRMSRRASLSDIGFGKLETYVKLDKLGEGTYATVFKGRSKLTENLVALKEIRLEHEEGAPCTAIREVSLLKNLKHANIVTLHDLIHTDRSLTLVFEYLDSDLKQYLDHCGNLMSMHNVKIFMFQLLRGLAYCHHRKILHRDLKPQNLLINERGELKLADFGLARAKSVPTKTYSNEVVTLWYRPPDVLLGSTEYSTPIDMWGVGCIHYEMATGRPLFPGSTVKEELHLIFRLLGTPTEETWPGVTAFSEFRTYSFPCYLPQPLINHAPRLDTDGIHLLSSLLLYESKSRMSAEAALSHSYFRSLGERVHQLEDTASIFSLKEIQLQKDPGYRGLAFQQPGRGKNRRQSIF
# Sequence of CDK18/Cyclin Y (Q8ND76 whole entry partner): as the sequence (Q8ND76 whole entry partner) above
# Sequence of CDK4/Cyclin D1 (P11802 whole entry): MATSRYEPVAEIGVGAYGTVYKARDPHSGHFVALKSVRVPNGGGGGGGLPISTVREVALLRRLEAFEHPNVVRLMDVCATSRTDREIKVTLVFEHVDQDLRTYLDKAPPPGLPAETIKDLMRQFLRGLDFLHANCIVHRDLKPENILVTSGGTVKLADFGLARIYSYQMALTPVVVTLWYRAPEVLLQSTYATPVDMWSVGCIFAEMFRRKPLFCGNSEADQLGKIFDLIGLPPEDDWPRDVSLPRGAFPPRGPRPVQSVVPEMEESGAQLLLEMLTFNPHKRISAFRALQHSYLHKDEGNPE
# Sequence of CDK4/Cyclin D1 (P24385 whole entry partner): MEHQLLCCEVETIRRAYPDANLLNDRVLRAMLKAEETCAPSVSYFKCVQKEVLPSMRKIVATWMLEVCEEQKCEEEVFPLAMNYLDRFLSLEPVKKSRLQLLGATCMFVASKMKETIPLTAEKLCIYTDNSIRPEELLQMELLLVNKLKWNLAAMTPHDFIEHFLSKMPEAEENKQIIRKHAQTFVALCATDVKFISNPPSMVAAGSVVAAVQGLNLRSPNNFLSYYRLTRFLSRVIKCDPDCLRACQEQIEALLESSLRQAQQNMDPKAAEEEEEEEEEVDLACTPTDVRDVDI
# Sequence of CDK5/CDK5R1 (Q00535 whole entry): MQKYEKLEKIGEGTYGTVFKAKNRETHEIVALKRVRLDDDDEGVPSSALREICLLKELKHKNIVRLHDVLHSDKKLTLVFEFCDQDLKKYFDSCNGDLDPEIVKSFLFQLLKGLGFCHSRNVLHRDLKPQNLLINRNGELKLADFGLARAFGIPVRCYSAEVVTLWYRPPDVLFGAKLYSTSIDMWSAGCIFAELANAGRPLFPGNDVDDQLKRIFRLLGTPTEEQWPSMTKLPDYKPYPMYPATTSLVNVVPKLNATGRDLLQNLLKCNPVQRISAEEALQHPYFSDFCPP
# Sequence of CDK5/CDK5R1 (Q15078 whole entry partner): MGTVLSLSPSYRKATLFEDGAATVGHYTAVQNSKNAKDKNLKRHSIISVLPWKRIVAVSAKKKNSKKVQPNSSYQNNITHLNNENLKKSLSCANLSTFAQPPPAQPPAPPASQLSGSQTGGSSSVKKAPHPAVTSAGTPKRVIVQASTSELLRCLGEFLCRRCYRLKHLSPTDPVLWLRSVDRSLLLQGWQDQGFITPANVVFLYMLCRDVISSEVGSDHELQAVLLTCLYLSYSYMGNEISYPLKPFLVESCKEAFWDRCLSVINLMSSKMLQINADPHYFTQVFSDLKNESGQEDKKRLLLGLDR
# Sequence of CDK10/Cyclin L2 (Q15131 whole entry): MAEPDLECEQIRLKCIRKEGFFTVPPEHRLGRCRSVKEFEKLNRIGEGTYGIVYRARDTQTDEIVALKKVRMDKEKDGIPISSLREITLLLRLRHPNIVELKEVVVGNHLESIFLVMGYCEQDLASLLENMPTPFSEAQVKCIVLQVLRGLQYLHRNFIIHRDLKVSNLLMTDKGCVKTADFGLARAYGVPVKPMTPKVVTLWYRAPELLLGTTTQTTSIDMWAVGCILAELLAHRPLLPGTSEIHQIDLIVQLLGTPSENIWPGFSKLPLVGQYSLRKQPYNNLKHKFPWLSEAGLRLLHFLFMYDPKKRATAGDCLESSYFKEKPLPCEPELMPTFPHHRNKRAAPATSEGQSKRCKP
# Sequence of CDK15/Cyclin Y (Q96Q40 whole entry): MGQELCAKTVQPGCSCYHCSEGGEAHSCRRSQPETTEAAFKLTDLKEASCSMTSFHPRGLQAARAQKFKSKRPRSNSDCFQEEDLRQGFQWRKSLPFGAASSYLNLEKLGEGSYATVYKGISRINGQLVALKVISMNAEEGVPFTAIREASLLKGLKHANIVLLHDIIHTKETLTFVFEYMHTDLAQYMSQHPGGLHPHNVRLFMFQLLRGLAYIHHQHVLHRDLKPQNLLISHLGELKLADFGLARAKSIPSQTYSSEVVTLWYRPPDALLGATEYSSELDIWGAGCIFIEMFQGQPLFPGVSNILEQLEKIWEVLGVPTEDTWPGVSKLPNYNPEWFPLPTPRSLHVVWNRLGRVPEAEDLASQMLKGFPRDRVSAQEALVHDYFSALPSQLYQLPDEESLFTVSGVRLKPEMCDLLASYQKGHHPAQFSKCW
# Sequence of CDK15/Cyclin Y (Q8ND76 whole entry partner): as the sequence (Q8ND76 whole entry partner) above
smiles,measurement,setting,value
CCN1CCN(Cc2ccc(Nc3ncc(F)c(-c4cc(F)c5nc(C)n(C(C)C)c5c4)n3)nc2)CC1 [Abemaciclib],inhibition at 10 µM,CDK13/Cyclin K; [1],7.8%
same,inhibition at 10 µM,CDK13/Cyclin K; [2],5.2%
same,inhibition at 10 µM,CDK13/Cyclin K; [3],10.4%
same,inhibition at 10 µM,"CDK18/Cyclin Y; CDK18/Y, average of replicates, read-out: Inhibition at 10µM (%) Average",74.8%
same,inhibition at 10 µM,"CDK18/Cyclin Y; CDK18/Y, read-out: Inhibition at 10µM (%) Replicate 1",73.2%
same,inhibition at 10 µM,"CDK18/Cyclin Y; CDK18/Y, read-out: Inhibition at 10µM (%) Replicate 2",76.3%
same,IC50,"CDK18/Cyclin Y; CDK18/Y, read-out: IC50 (nM) Replicate 1",304 nM
same,IC50,"CDK18/Cyclin Y; IC50 (nM) Average*, CDK18/Y, n=3 average ± SEM, n=2 average to 2 significant figures",380 ± 60 nM
same,IC50,"CDK18/Cyclin Y; IC50 (nM) Replicate 2, CDK18/Y",350 nM
same,IC50,"CDK18/Cyclin Y; IC50 (nM) Replicate 3, CDK18/Y",496 nM
same,inhibition at 10 µM,CDK17/Cyclin Y; [1],83%
same,inhibition at 10 µM,CDK17/Cyclin Y; [2],83%
same,inhibition at 10 µM,CDK17/Cyclin Y; [3],82.9%
same,inhibition at 10 µM,"CDK10/Cyclin L2; read-out: Inhibition at 10µM (%) Average, CDK10/L2, average of replicates",20.9%
same,inhibition at 10 µM,"CDK10/Cyclin L2; read-out: Inhibition at 10µM (%) Replicate 1, CDK10/L2",21.5%
same,inhibition at 10 µM,"CDK10/Cyclin L2; read-out: Inhibition at 10µM (%) Replicate 2, CDK10/L2",20.2%
same,inhibition at 10 µM,CDK15/Cyclin Y; [1],57.4%
same,inhibition at 10 µM,CDK15/Cyclin Y; [2],57.3%
same,inhibition at 10 µM,CDK15/Cyclin Y; [3],57.5%
same,inhibition at 10 µM,CDK5/CDK5R1; [1],40.9%
same,inhibition at 10 µM,CDK5/CDK5R1; [2],38%
same,inhibition at 10 µM,CDK5/CDK5R1; [3],43.8%
same,inhibition at 10 µM,CDK7; [1],63.4%
same,inhibition at 10 µM,CDK7; [2],65.2%
same,inhibition at 10 µM,CDK7; [3],61.7%
same,inhibition at 10 µM,CDK8/Cyclin C; [1],35.7%
same,inhibition at 10 µM,CDK8/Cyclin C; [2],27.2%
same,inhibition at 10 µM,CDK8/Cyclin C; [3],44.2%
same,inhibition at 10 µM,CDK11B/Cyclin L2; [1],27.7%
same,inhibition at 10 µM,CDK11B/Cyclin L2; [2],27.9%
same,inhibition at 10 µM,CDK11B/Cyclin L2; [3],27.6%
same,inhibition at 10 µM,CDK3/Cyclin E1; [1],62.2%
same,inhibition at 10 µM,CDK3/Cyclin E1; [2],62.2%
same,inhibition at 10 µM,CDK3/Cyclin E1; [3],62.3%
same,inhibition at 10 µM,CDK16/Cyclin Y; [2],86.3%
same,inhibition at 10 µM,CDK16/Cyclin Y; [3],85.8%
same,inhibition at 10 µM,CDK20/Cyclin H; [2],8.8%
same,inhibition at 10 µM,CDK20/Cyclin H; [3],28.5%
same,inhibition at 10 µM,CDK6/Cyclin D1; [1],99.4%
same,inhibition at 10 µM,CDK6/Cyclin D1; [2],99.4%
same,inhibition at 10 µM,CDK6/Cyclin D1; [3],99.4%
same,inhibition at 10 µM,"CDK19/Cyclin C; read-out: Inhibition at 10µM (%) Average, CDK19/C, average of replicates",40.7%
same,inhibition at 10 µM,"CDK19/Cyclin C; read-out: Inhibition at 10µM (%) Replicate 1, CDK19/C",41.9%
same,inhibition at 10 µM,"CDK19/Cyclin C; read-out: Inhibition at 10µM (%) Replicate 2, CDK19/C",39.5%
same,inhibition at 10 µM,CDK9/Cyclin K; [1],84.3%
same,inhibition at 10 µM,CDK9/Cyclin K; [2],79.2%
same,inhibition at 10 µM,CDK9/Cyclin K; [3],89.3%
same,inhibition at 10 µM,CDK4/Cyclin D1; [1],99.6%
same,inhibition at 10 µM,CDK4/Cyclin D1; [2],100%
same,inhibition at 10 µM,CDK4/Cyclin D1; [3],99%
same,inhibition at 10 µM,CDK12/Cyclin K; [1],11.6%
same,inhibition at 10 µM,CDK12/Cyclin K; [2],10.3%
same,inhibition at 10 µM,CDK12/Cyclin K; [3],12.8%
